Entries after “also recorded” stand apart in the source; their conditions may differ. Where two headings read alike, the source gives them in different places.
Assays:
[1] = tested on: nonmetastatic castration-resistant prostate cancer (nmCRPC); assay: SPARTAN phase III randomized placebo-controlled trial; outcomes by treatment group and MMAI risk group; type: in vivo, human; details: for PFS2 hazard ratio (HR) for apalutamide compared to placebo: second progression-free survival; for MFS HR, variable Treatment, Cox regression multivariable analysis / OS HR, variable Treatment, Cox regression multivariable analysis / PFS2 HR, variable Treatment, Cox regression multivariable analysis: all patients
Source text: The addition of apalutamide (APA) to androgen deprivation therapy (ADT) improved metastasis-free survival (MFS) and second progression-free survival (PFS2) among patients with nonmetastatic castration-resistant prostate cancer (nmCRPC). A digital histopathology-based multimodal AI (MMAI) algorithm as described herein was trained to evaluate whether MMAI could define risk of progression among nmCRPC patients treated with APA or placebo in the SPARTAN trial.
Patients enrolled in the SPARTAN trial with available H&E-stained biopsy slides from their primary diagnosis were included. H&E slides were digitized. Baseline clinical parameters to generate MMAI scores were Gleason score, age, T stage, and PSA. MMAI scores for distant metastasis (DM) were generated, ranging from 0 to 1. Patients were further categorized into MMAI non-high-risk and high-risk groups using a score cutoff. Kaplan Meier estimates were calculated for PFS2 and MFS; comparisons were performed using log-rank test and Cox proportional-hazards regression for treatment arms and MMAI risk groups. […] was used to evaluate the interaction between treatment arms and risk groups.
SPARTAN (NCT01946204) was an international, multicenter, randomized, double-blinded, placebo-controlled, phase III clinical trial that evaluated the efficacy of apalutamide in improving MFS in men with nmCRPC. […] These patients were considered at high risk for the development of metastases, as indicated by a PSA doubling time of 10 months or less during continuous ADT.
Participants were randomly assigned 2:1 to receive ongoing ADT with either apalutamide (240 mg daily) or a matched placebo. A primary endpoint of the study was MFS, defined as the duration from randomization to the first detection of distant metastasis on conventional imaging (as determined on central review by independent radiologists blinded to patient identifiers and treatment) or death from any cause, whichever occurred first. Secondary endpoints included second progression-free survival (PFS2), defined as the time from randomization to progression on first subsequent therapy, and overall survival (OS), defined as the time from randomization to death.
MMAI scores were computed for each subject within the analysis cohort using whole slide images digitized at 20× resolution from H&E-stained prostate primary slides obtained at the time of diagnosis. These scores, ranging from 0 to 1, represent a continuum of increasing probabilities for clinical events such as DM and PCSM. Subjects' MMAI scores for risk of DM categorized patients into MMAI risk groups (low, intermediate and high) using predefined clinical thresholds established for patients with localized prostate cancer based upon clinician input. For the purpose of this analysis, patients were categorized as either MMAI high risk or MMAI non-high risk (MMAI score with >10% estimated 10-year DM rates defined high-risk), with the latter group combining the low and intermediate risk categories for comparison.
Summary statistics of baseline characteristics for the analysis cohort, treatment subgroups and the overall clinical trial cohort were reported to evaluate comparability. Kaplan-Meier estimates were calculated for MFS, PFS2, and OS for analysis by treatment group and MMAI risk groups. Comparisons were performed using log-rank test and Cox proportional hazards regression models for treatment arms, MMAI risk scores, and MMAI risk group. The reporting unit for continuous MMAI scores in the Cox models is standard deviation (SD), meaning that each 1-unit increase corresponds to 1 SD increase in MMAI score. The interaction between treatment arm and MMAI risk scores was evaluated using a Cox proportional hazards model. Treatment effects within each MMAI risk subgroup were also assessed to measure the relative treatment effect between arms. […]

[2] = tested on: nonmetastatic castration-resistant prostate cancer (nmCRPC); details: cited from earlier work
[3] = all patients of analysis cohort
[4] = model with MMAI risk group (high/non-high) and MMAI risk group:Treatment interaction
[5] = model with continuous MMAI risk score and MMAI risk score:Treatment interaction
[6] = overall SPARTAN study, in words

SMILES: CNC(=O)c1ccc(N2C(=S)N(c3cnc(C#N)c(C(F)(F)F)c3)C(=O)C23CCC3)cc1F [apalutamide]
- Median overall survival (95% CI), month ([1]; MMAI Biomarker Cohort, N = 311): 65.1 month
- MFS hazard ratio (HR) for apalutamide compared to placebo ([1]; MMAI high risk group, metastasis-free survival, with ongoing ADT): 0.19
- OS hazard ratio (HR) for apalutamide compared to placebo ([1]; MMAI high risk group, overall survival): 0.6
- PFS2 hazard ratio (HR) for apalutamide compared to placebo ([1]; MMAI high risk group): 0.47
- PFS2 hazard ratio (HR) for apalutamide compared to placebo ([1]; MMAI high risk group, listed as APA): 0.76
- MFS HR, variable Treatment, Cox regression univariate analysis [1, 3]: 0.28
- PFS2 HR, variable Treatment, Cox regression univariate analysis [1, 3]: 0.55
- OS HR, variable Treatment, Cox regression univariate analysis ([1]; all patients of analysis cohort, listed as Treatment): 0.7
- MFS HR, variable Treatment, Cox regression multivariable analysis [1, 4]: 0.61
- OS HR, variable Treatment, Cox regression multivariable analysis [1, 4]: 0.97
- PFS2 HR, variable Treatment, Cox regression multivariable analysis [1, 4]: 0.74
- MFS HR, variable Treatment, Cox regression multivariable analysis [1, 5]: 1.72
- OS HR, variable Treatment, Cox regression multivariable analysis [1, 5]: 1.98
- PFS2 HR, variable Treatment, Cox regression multivariable analysis [1, 5]: 2.28
- Median metastasis-free survival (95% CI), month ([2]; Overall SPARTAN Trial, N = 806): 40.5 month
- Median overall survival (95% CI), month ([2]; Overall SPARTAN Trial, N = 806): 73.9 month
- metastasis-free survival (MFS), effect of adding apalutamide to ADT [2, 6]: significantly improved
- second progression-free survival (PFS2), effect of adding apalutamide to ADT [2, 6]: significantly improved
- time to symptomatic progression, effect of adding apalutamide to ADT [2, 6]: significantly improved
- overall survival (OS), effect of adding apalutamide to ADT compared to placebo ([2]; overall SPARTAN study, in words, median follow up of 52 months): significantly improved; also recorded: significant extension

From patent publication US20250054624A1, “METHODS AND SYSTEMS FOR DIGITAL PATHOLOGY ASSESSMENT OF CANCER VIA DEEP LEARNING” (Artera Inc., priority 2023, published 2025)
